{"source": "paper PMC3433420", "about": "(PLoS ONE, 2012)", "key": {"[1]": {"biological_target": "T1, PIK3R1-NC tandem SH2 domains (Homo sapiens, UniProt P27986)", "T1 construct": "the tandem protein was included in our analysis with all internal amino acids linking the domains; 6X His; thioredoxin; made in house; host or cells: E. coli BL21(DE3)pLysS", "T1 sequence (P27986 333-718 limits assumed)": "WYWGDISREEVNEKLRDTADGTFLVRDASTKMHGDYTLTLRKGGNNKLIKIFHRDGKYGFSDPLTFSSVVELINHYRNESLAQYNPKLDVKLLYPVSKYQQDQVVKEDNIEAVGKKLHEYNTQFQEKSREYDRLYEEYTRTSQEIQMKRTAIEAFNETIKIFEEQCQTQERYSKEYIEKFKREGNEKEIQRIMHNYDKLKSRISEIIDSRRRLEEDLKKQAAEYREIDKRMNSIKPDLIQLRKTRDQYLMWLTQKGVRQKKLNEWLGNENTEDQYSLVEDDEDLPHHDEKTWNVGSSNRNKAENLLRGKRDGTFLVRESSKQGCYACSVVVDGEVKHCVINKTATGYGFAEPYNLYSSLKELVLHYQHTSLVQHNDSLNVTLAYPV", "assay": "FP saturation binding assay", "settings": "high-confidence ErbB interactions", "procedure,_shortened": "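KD values come from least-squares fits of fluorescence polarization (ex 530, em 555 nm), corrected for thioredoxin nonspecific binding and plate baseline, with outliers pruned. Fixed 10 nM labeled peptide met a 0.002–10 µM protein series for 20 min at room temperature in HEPES/KCl/Tween/DTT buffer, pH 7.8.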"}, "PIK3R3-C SH2 domain": {"biological_target": "T2, PIK3R3-C SH2 domain (Homo sapiens, UniProt Q92569)", "T2 construct": "thioredoxin; made in house; host or cells: E. coli BL21(DE3)pLysS", "assay": "biochemical", "format": "binding", "settings": "high-confidence ErbB interactions"}}, "note": "Residues, ends and D or L forms follow the SMILES beside them."}
{"smiles": "CSCC[C@H](NC(=O)[C@H](Cc1ccc(OP(=O)(O)O)cc1)NC(=O)CNC(=O)[C@H](CCC(=O)O)NC(=O)[C@H](CCC(=O)O)NC(=O)[C@H](CC(=O)O)NC(=O)[C@H](CC(C)C)NC(=O)[C@H](CCC(=O)O)NC(=O)CNC(=O)[C@H](CCCNC(=N)N)NC(=O)[C@@H]1CCCN1)C(=O)N[C@H](C(=O)N1CCC[C@H]1C(=O)N[C@@H](CCSC)C(=O)N[C@@H](CCCNC(=N)N)C(=O)N[C@@H](CC(=O)O)C(=O)N[C@@H](CCCCN)C(=O)N[C@@H](CC(=O)O)C(=O)O)[C@@H](C)O", "note": "[ErbB4 1150 18-mer] (HELM PEPTIDE1{P.R.G.E.L.D.E.E.G.[O=C([C@H](Cc1ccc(OP(=O)(O)O)cc1)N[*:1])[*:2]].M.T.P.M.R.D.K.D}$$$$V2.0)", "values": [{"measurement": "Kd", "setting": "[1]; protein PIK3R1-NC, FP, mean of replicate hits", "value": 5.81, "unit": "µM"}]}
{"smiles": "CSCC[C@H](NC(=O)[C@H](Cc1ccc(OP(=O)(O)O)cc1)NC(=O)[C@H](CCC(=O)O)NC(=O)[C@H](Cc1ccc(O)cc1)NC(=O)CNC(=O)[C@@H](N)CC(C)C)C(=O)N[C@@H](CC(=O)O)C(=O)N[C@H](C(=O)NCC(=O)N[C@@H](CO)C(=O)N[C@@H](CC(=O)O)C(=O)N[C@@H](CC(C)C)C(=O)N[C@@H](CC(=O)O)C(=O)O)C(C)C", "note": "[ErbB3 1224 13-mer] (HELM PEPTIDE1{L.G.Y.E.[O=C([C@H](Cc1ccc(OP(=O)(O)O)cc1)N[*:1])[*:2]].M.D.V.G.S.D.L.D}$$$$V2.0)", "values": [{"measurement": "Kd", "setting": "PIK3R3-C SH2 domain; protein PIK3R3-C, FP, mean of replicate hits", "value": 6.11, "unit": "µM"}]}
{"smiles": "CC(C)C[C@H](NC(=O)[C@H](Cc1ccc(OP(=O)(O)O)cc1)NC(=O)[C@H](CCC(=O)O)NC(=O)[C@H](CCC(=O)O)NC(=O)[C@H](C)NC(=O)[C@@H](N)CC(=O)O)C(=O)N[C@H](C(=O)N1CCC[C@H]1C(=O)N[C@@H](CCC(N)=O)C(=O)N[C@@H](CCC(N)=O)C(=O)NCC(=O)N[C@@H](Cc1ccccc1)C(=O)N[C@@H](CC(=O)O)C(=O)O)C(C)C", "note": "[ErbB2 1023 13-mer] (HELM PEPTIDE1{D.A.E.E.[O=C([C@H](Cc1ccc(OP(=O)(O)O)cc1)N[*:1])[*:2]].L.V.P.Q.Q.G.F.D}$$$$V2.0)", "values": [{"measurement": "Kd", "setting": "PIK3R3-C SH2 domain; Protein PIK3R3-C, FP saturation binding, mean over replicate hits", "value": 5.8, "unit": "µM"}, {"measurement": "Kd", "setting": "[1]; Protein PIK3R1-NC, FP saturation binding, mean over replicate hits", "value": 7.14, "unit": "µM"}]}
